{
  "source": "patent EP4635969A1",
  "about": "“NOVEL GLUCOCORTICOID, METHOD FOR PREPARING SAME, AND USE THEREOF” (Tianjin Pharmaceutical Biotechnology Co., Ltd., priority 2022, dated 2024)",
  "biological_target": "T1, glucocorticoid receptor (GR) (Homo sapiens, UniProt P04150)",
  "T1 sequence (P04150 521-777)": "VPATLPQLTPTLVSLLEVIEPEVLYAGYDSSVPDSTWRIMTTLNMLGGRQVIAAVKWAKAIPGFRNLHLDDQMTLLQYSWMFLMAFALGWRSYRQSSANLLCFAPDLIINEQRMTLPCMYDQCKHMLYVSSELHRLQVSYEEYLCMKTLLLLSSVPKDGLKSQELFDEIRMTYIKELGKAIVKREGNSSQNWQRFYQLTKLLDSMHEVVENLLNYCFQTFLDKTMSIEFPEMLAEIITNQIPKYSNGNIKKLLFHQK",
  "test": "Assay for agonist activity on glucocorticoid receptor (luciferase reporter, HEK293 cells transfected with pBIND-GR plasmid)",
  "format": "cell-based",
  "details": "HEK293 cells transfected with pBIND-GR, luciferase signal; read-out: GR agonist EC50",
  "description": "Pharmacological Example 1: Assay for Agonist Activity on Glucocorticoid Receptor (GR)\nThe test compounds were subjected to a 4-fold serial dilution starting from an initial concentration of 10 µ M, generating a 10-point concentration gradient with duplicate wells for each concentration. The blank control consisted of 0.1 % DMSO.\nThe HEK293 stable cell line […] transfected with glucocorticoid receptor (GR) (ICE Bioscience, Lot No. TYP-20220519) was cultured in Dulbecco's Modified Eagle Medium (DMEM) supplemented with 10% fetal bovine serum (FBS) and 200 µ g/ml Hygromycin B in a cell incubator containing 5% CO2 at 37 °C. The spent medium was aspirated and the cells were washed once with phosphate-buffered saline (PBS). Then, 1 mL of TrypLE™ Express solution was added, and the cells were incubated at 37 °C for approximately 2 min. When the cells detached from the bottom of the cell culture dish, approximately 5 mL of pre-warmed complete medium at 37 °C was added. The cell suspension was gently pipetted with a pipette to dissociate clumped cells. The cell suspension was transferred to a sterile centrifuge tube and centrifuged at 1000 rpm for 5 min to pellet the cells for experiments or subculture.\nHEK293 cells were digested and seeded into 6-cm culture dishes. The pBIND-GR plasmid was transfected into the HEK293 cells using a transfection reagent, resulting in HEK293 cells successfully transfected with the pBIND-GR plasmid. The cells were resuspended in phenol red-free DMEM medium containing 5% charcoal-stripped serum, counted, and then seeded into 96-well plates. The test compounds were added, and the plates were then incubated in an incubator. The luminescence signal values were measured using a multimode microplate reader following the instructions of the luciferase assay kit. The EC50 values of each test compound were calculated using the nonlinear fitting formula with GraphPad Prism 8.0 software.",
  "data": [
    {"compound": "C[C@]12C=CC(=O)C=C1CC[C@H]1[C@@H]3C[C@H]4OC(c5ccc(CNC6COC(=O)C6)cc5)O[C@@]4(C(=O)CO)[C@@]3(C)C[C@H](O)[C@@]12Cl", "note": "(stereo partly drawn) [Compound 27, (6aS,6bR,7S,8aS,8bS,11aR,12aS,12bS)-6b-Chloro-7-hydroxy-8b-(2-hydroxyacetyl)-6a,8a-dimethyl-10-(4-(((5-oxotetrahydrofuran-3-yl)amino)methyl)phenyl)-1,2,6a,6b,7,8,8a,8b,11a,12,12a,12b-dodecahydro-4H-naphtho[2',1':4,5]indeno[1,2-d][1,3]dioxol-4-one]", "values": [
      {"measurement": "EC50", "value": 1.82, "unit": "nM"}
    ]},
    {"compound": "C[C@]12C=CC(=O)C=C1[C@@H](F)C[C@H]1[C@@H]3C[C@H]4OC(c5ccc(CNC6COC(=O)C6)cc5F)O[C@@]4(C(=O)CO)[C@@]3(C)C[C@H](O)[C@@]12F", "note": "(stereo partly drawn) [Compound 12, (2S,6aS,6bR,7S,8aS,8bS,11aR,12aS,12bS)-2,6b-Difluoro-10-(2-fluoro-4-(((5-oxotetrahydrofuran-3-yl)amino)methyl)phenyl)-7-hydroxy-8b-(2-hydroxyacetyl)-6a,8a-dimethyl-1,2,6a,6b,7,8,8a,8b,1 1a,12,12a,12b-dodecahydro-4H-naphtho[2',1':4,5]indeno[1,2-d][1,3]dioxol-4-one]", "values": [
      {"measurement": "EC50", "value": 4.06, "unit": "nM"}
    ]},
    {"compound": "C[C@]12C=CC(=O)C=C1CC[C@H]1[C@@H]3C[C@H]4OC(c5ccc(CSC6CCOC6=O)cn5)O[C@@]4(C(=O)CO)[C@@]3(C)C[C@H](O)[C@@]12F", "note": "(stereo partly drawn) [Compound 50, (6aS,6bR,7S,8aS,8bS,11aR,12aS,12bS)-6b-Fluoro-7-hydroxy-8b-(2-hydroxyacetyl)-6a,8a-dimethyl-10-(5-(((2-oxotetrahydrofuran-3-yl)thio)methyl)pyridin-2-yl)-1,2,6a,6b,7,8,8a,8b,11a,12,12a,12 b-dodecahydro-4H-naphtho[2',1':4,5]indeno[1,2-d][1,3]dioxol-4-one]", "values": [
      {"measurement": "EC50", "value": 0.98, "unit": "nM"}
    ]},
    {"compound": "C[C@]12C=CC(=O)C=C1CC[C@H]1[C@@H]3C[C@H]4OC(c5ccc(C[S+]([O-])C6CCOC6=O)cc5)O[C@@]4(C(=O)CO)[C@@]3(C)C[C@H](O)[C@@]12Cl", "note": "(stereo partly drawn) [Compound 57, (6aS,6bR,7S,8aS,8bS,11aR,12aS,12bS)-6b-Chloro-7-hydroxy-8b-(2-hydroxyacetyl)-6a,8a-dimethyl-10-(4-(((2-oxotetrahydrofuran-3-yl)sulfinyl)methyl)phenyl)-1,2,6a,6b,7,8,8a,8b,11a,12,12a,12b-dodecahydro-4H-naphtho[2',1':4,5]indeno[1,2-d][1,3]dioxol-4-one]", "values": [
      {"measurement": "EC50", "value": 0.86, "unit": "nM"}
    ]},
    {"compound": "C[C@]12C=CC(=O)C=C1[C@@H](F)C[C@H]1[C@@H]3C[C@H]4OC(c5cnc(CSC6CCOC6=O)nc5)O[C@@]4(C(=O)CO)[C@@]3(C)C[C@H](O)[C@@]12F", "note": "(stereo partly drawn) [Compound 52, (2S,6aS,6bR,7S,8aS,8bS,11aR,12aS,12bS)-2,6b-Difluoro-7-hydroxy-8b-(2-hydroxyacetyl)-6a,8a-dimethyl-10-(2-(((2-oxotetrahydrofuran-3-yl)thio)methyl)pyrimidin-5-yl)-1,2,6a,6b,7,8,8a,8b,11a, 12,12a,12b-dodecahydro-4H-naphtho[2',1':4,5]indeno[1,2-d][1,3]dioxol-4-one]", "values": [
      {"measurement": "EC50", "value": 6.92, "unit": "nM"}
    ]},
    {"compound": "C[C@]12C=CC(=O)C=C1CC[C@H]1[C@@H]3C[C@H]4OC(c5ccc(OC6CCOC6=O)cc5)O[C@@]4(C(=O)CO)[C@@]3(C)C[C@H](O)[C@@]12F", "note": "(stereo partly drawn) [Compound 40, (6aS,6bR,7S,8aS,8bS,11aR,12aS,12bS)-6b-Fluoro-7-hydroxy-8b-(2-hydroxyacetyl)-6a,8a-dimethyl-10-(4-((2-oxotetrahydrofuran-3-yl)oxy)phenyl)-1,2,6a,6b,7,8,8a,8b,11a,12,12a,12b-dodecahydr o-4H-naphtho[2',1':4,5]indeno[1,2-d][1,3]dioxol-4-one]", "values": [
      {"measurement": "EC50", "value": 30.7, "unit": "nM"}
    ]},
    {"compound": "C[C@]12C=CC(=O)C=C1CC[C@H]1[C@@H]3C[C@H]4OC(c5ccc(C[S+]([O-])C6CCOC6=O)cc5)O[C@@]4(C(=O)CO)[C@@]3(C)C[C@H](O)[C@@]12F", "note": "(stereo partly drawn) [Compound 56, (6aS,6bR,7S,8aS,8bS,11aR,12aS,12bS)-6b-Fluoro-7-hydroxy-8b-(2-hydroxyacetyl)-6a,8a-dimethyl-10-(4-(((2-oxotetrahydrofuran-3-yl)sulfinyl)methyl)phenyl)-1,2,6a,6b,7,8,8a,8b,11a,12,12a,12b-dodecahydro-4H-naphtho[2',1':4,5]indeno[1,2-d][1,3]dioxol-4-one]", "values": [
      {"measurement": "EC50", "value": 1.56, "unit": "nM"}
    ]},
    {"compound": "C[C@]12C=CC(=O)C=C1[C@@H](F)C[C@H]1[C@@H]3C[C@H]4OC(c5ccc(NC(=O)C6COC(=O)C6)cc5)O[C@@]4(C(=O)CO)[C@@]3(C)C[C@H](O)[C@@]12F", "note": "(stereo partly drawn) [Compound 2, N-(4-((2S,6aS,6bR,7S,8aS,8bS,11aR,12aS,12bS)-2,6b-Difluoro-7-hydroxy-8b-(2-hydroxyacetyl)-6a,8a-dimethyl-4-oxo-2,4,6a,6b,7,8,8a,8b,11a,12,12a,12b-dodecahydro-1H-naphtho[2',1':4,5]indeno[1,2-d][1,3]dioxol-10-yl)phenyl)-5-oxotetrahydrofuran-3-carboxamide]", "values": [
      {"measurement": "EC50", "value": 12.2, "unit": "nM"}
    ]},
    {"compound": "C[C@]12C=CC(=O)C=C1CC[C@H]1[C@@H]3C[C@H]4OC(C5CCN(CC6CCOC6=O)CC5)O[C@@]4(C(=O)CO)[C@@]3(C)C[C@H](O)[C@@]12F", "note": "(stereo partly drawn) [Compound 44, (6aS,6bR,7S,8aS,8bS,11aR,12aS,12bS)-6b-Fluoro-7-hydroxy-8b-(2-hydroxyacetyl)-6a,8a-dimethyl-10-(1-((2-oxotetrahydrofuran-3-yl)methyl)piperidin-4-yl)-1,2,6a,6b,7,8,8a,8b,11a,12,12a,12b-d odecahydro-4H-naphtho[2',1':4,5]indeno[1,2-d][1,3]dioxol-4-one]", "values": [
      {"measurement": "EC50", "value": 15.1, "unit": "nM"}
    ]},
    {"compound": "C[C@]12C=CC(=O)C=C1[C@@H](F)C[C@H]1[C@@H]3C[C@H]4OC(c5ccc(NCC6CCOC6=O)cc5)O[C@@]4(C(=O)CO)[C@@]3(C)C[C@H](O)[C@@]12F", "note": "(stereo partly drawn) [Compound 15, (2S,6aS,6bR,7S,8aS,8bS,11aR,12aS,12bS)-2,6b-Difluoro-7-hydroxy-8b-(2-hydroxyacetyl)-6a,8a-dimethyl-10-(4-(((2-oxotetrahydrofuran-3-yl)methyl)amino)phenyl)-1,2,6a,6b,7,8,8a,8b,11a,12,12 a,12b-dodecahydro-4H-naphtho[2',1':4,5]indeno[1,2-d][1,3]dioxol-4-one]", "values": [
      {"measurement": "EC50", "value": 6.12, "unit": "nM"}
    ]},
    {"compound": "C[C@]12C=CC(=O)C=C1CC[C@@H]1[C@@H]2[C@@H](O)C[C@@]2(C)[C@H]1C[C@H]1OC(c3ccc(CNC4COC(=O)C4)cc3)O[C@]12C(=O)CO", "note": "(stereo partly drawn) [Compound 33, (6aR,6bS, 7S,8aS,8bS,11aR,12aS,12bS)-7-Hydroxy-8b-(2-hydroxyacetyl)-6a,8a-dimethyl-10-(4-(( (5-oxotetrahydrofuran-3-yl)amino)methyl)phenyl)-1,2,6a,6b,7,8,8a,8b,11a,12,12a,12b-dodecahydr o-4H-naphtho[2',1':4,5]indeno[1,2-d][1,3]dioxol-4-one]", "values": [
      {"measurement": "EC50", "value": 4.38, "unit": "nM"}
    ]},
    {"compound": "C[C@]12C=CC(=O)C=C1[C@@H](F)C[C@H]1[C@@H]3C[C@H]4OC(C5CCN(C(=O)C6COC(=O)C6)CC5)O[C@@]4(C(=O)CO)[C@@]3(C)C[C@H](O)[C@@]12F", "note": "(stereo partly drawn) [Compound 1, (2S,6aS,6bR,7S,8aS,8bS,11aR,12aS,12bS)-2,6b-Difluoro-7-hydroxy-8b-(2-hydroxyacetyl)-6a,8a-dimethyl-10-(1-(5-oxotetrahydrofuran-3-carbonyl)piperidin-4-yl)-1,2,6a,6b,7,8,8a,8b,11a,12,12a,1 2b-dodecahydro-4H-naphtho[2',1':4,5]indeno[1,2-d][1,3]dioxol-4-one]", "values": [
      {"measurement": "EC50", "value": 20.3, "unit": "nM"}
    ]},
    {"compound": "C[C@]12C=CC(=O)C=C1[C@@H](F)C[C@H]1[C@@H]3C[C@H]4OC(C5CCC(NC(=O)C6COC(=O)C6)CC5)O[C@@]4(C(=O)CO)[C@@]3(C)C[C@H](O)[C@@]12F", "note": "(stereo partly drawn) [Compound 3, N-(4-((2S,6aS,6bR,7S,8aS,8bS,11aR,12aS,12bS)-2,6b-Difluoro-7-hydroxy-8b-(2-hydroxyacetyl)-6a,8a-dimethyl-4-oxo-2,4,6a,6b,7,8,8a,8b,11a,12,12a,12b-dodecahydro-1H-naphtho[2',1':4,5]indeno[1,2-d][1,3]dioxol-10-yl)cyclohexyl)-5-oxotetrahydrofuran-3-carboxamide]", "values": [
      {"measurement": "EC50", "value": 17.6, "unit": "nM"}
    ]},
    {"compound": "C[C@]12C=CC(=O)C=C1[C@@H](F)C[C@H]1[C@@H]3C[C@H]4OC(c5ccc(CS(=O)(=O)C6CCOC6=O)cc5)O[C@@]4(C(=O)CO)[C@@]3(C)C[C@H](O)[C@@]12F", "note": "(stereo partly drawn) [Compound 58, (2S,6aS,6bR,7S,8aS,8bS,11aR,12aS,12bS)-2,6b-Difluoro-7-hydroxy-8b-(2-hydroxyacetyl)-6a,8a-dimethyl-10-(4-(((2-oxotetrahydrofuran-3-yl)sulfonyl)methyl)phenyl)-1,2,6a,6b,7,8,8a,8b,11a,12, 12a,12b-dodecahydro-4H-naphtho[2',1':4,5]indeno[1,2-d][1,3]dioxol-4-one]", "values": [
      {"measurement": "EC50", "value": 3.67, "unit": "nM"}
    ]}
  ]
}
